# Test results published in paper PMC8398451, “Molecular Engineering of Curcumin, an Active Constituent of Curcuma longa L. (Turmeric) of the Family Zingiberaceae with Improved Antiproliferative Activity” (Plants, 2021).
# Like-named read-outs stand apart in the source and are kept apart here.
# Assays:
# [1] = system: UACC-62; test: NCI antiproliferative SRB assay, Melanoma panel; assay type: cell-based, Human
# [2] = system: OVCAR-8; test: NCI antiproliferative SRB assay, Ovarian Cancer panel; assay type: cell-based, Human
# [3] = system: SK-OV-3; test: as above; assay type: cell-based, Human
# [4] = system: 786–0; test: NCI antiproliferative SRB assay, Renal Cancer panel; assay type: cell-based, Human
# [5] = system: ACHN; test: as above; assay type: cell-based, Human
# [6] = system: CAKI-1; test: as above; assay type: cell-based, Human
# [7] = system: SN 12C; test: as above; assay type: cell-based, Human
# [8] = system: TK-10; test: as above; assay type: cell-based, Human
# [9] = system: DU-145; test: NCI antiproliferative SRB assay, Prostate Cancer panel; assay type: cell-based, Human
# [10] = system: MCF7; test: NCI antiproliferative SRB assay, Breast Cancer panel; assay type: cell-based, Human
# [11] = system: MDA-MB-231; test: as above; assay type: cell-based
# [12] = system: Non-Small Cell Lung Cancer cell line panel; test: NCI antiproliferative assay, panel summary; assay type: cell-based, Human
# [13] = system: Melanoma cell line panel; test: NCI antiproliferative assay, panel summary; assay type: cell-based, Human
# [14] = system: Ovarian Cancer cell line panel; test: NCI antiproliferative assay, panel summary; assay type: cell-based, Human
# [15] = system: Prostate Cancer cell line panel; test: NCI antiproliferative assay, panel summary; assay type: cell-based, Human
# [16] = system: Breast Cancer cell line panel; test: NCI antiproliferative assay, panel summary; assay type: cell-based, Human
# [17] = system: 60 NCI cancer cell lines; test: NCI antiproliferative assay, summary over all lines; assay type: cell-based; conditions: for GI50: Homo sapiens, 5-dose assay
# [18] = Homo sapiens, 5-dose 0.01-100 µM
# [19] = Homo sapiens, 5-dose 0.01-100 µM, read-out: LC50 (the source's name)
# [20] = Homo sapiens, 5-dose assay, read-out: Sub Panel MID b (mean GI50 of panel)
# [21] = mean over cell lines, one dose 10 µM
compound,measurement,setting,value
COc1cc(/C=C/c2cc(/C=C/c3ccc(O)c(OC)c3)n(C(=O)Nc3ccc(C(F)(F)F)cc3)n2)ccc1O [3c],GI50,[1]; [18],2.02 µM
same,CC50,[1]; [19],16.7 µM
same,%GI,[1]; one dose 10 µM,68.90%
same,GP (growth percent),[1]; one dose 10 µM,31.10
same,TGI,[2]; 5-dose 0.01-100 µM,>100 µM
same,GI50,[2]; [18],3.33 µM
same,CC50,[2]; [19],> 100 µM
same,%GI,[2]; one dose 10 µM,99.57%
same,GP (growth percent),[2]; one dose 10 µM,0.43
same,TGI,[3]; 5-dose 0.01-100 µM,66.7 µM
same,GI50,[3]; [18],4.02 µM
same,CC50,[3]; [19],> 100 µM
same,%GI,[3]; one dose 10 µM,33.91%
same,GP (growth percent),[3]; one dose 10 µM,66.09
same,TGI,[4]; 5-dose 0.01-100 µM,7.52 µM
same,GI50,[4]; [18],2.42 µM
same,CC50,[4]; [19],> 100 µM
same,%GI,[4]; one dose 10 µM,79.93%
same,GP (growth percent),[4]; one dose 10 µM,20.07
same,TGI,[5]; 5-dose 0.01-100 µM,7.08 µM
same,GI50,[5]; [18],2.48 µM
same,CC50,[5]; [19],> 100 µM
same,GP (growth percent),[5]; one dose 10 µM,65.82
same,TGI,[6]; 5-dose 0.01-100 µM,12.7 µM
same,GI50,[6]; [18],3.02 µM
same,CC50,[6]; [19],44.1 µM
same,%GI,[6]; one dose 10 µM,45.01%
same,GP (growth percent),[6]; one dose 10 µM,54.99
same,TGI,[7]; 5-dose 0.01-100 µM,9.90 µM
same,GI50,"[7]; Homo sapiens, SN12C, 5-dose 0.01-100 µM",2.73 µM
same,CC50,"[7]; Homo sapiens, SN12C, 5-dose 0.01-100 µM, read-out: LC50 (the source's name)",> 100 µM
same,%GI,[7]; one dose 10 µM,63.08%
same,GP (growth percent),[7]; one dose 10 µM,36.92
same,TGI,[8]; 5-dose 0.01-100 µM,14.8 µM
same,GI50,[8]; [18],4.13 µM
same,CC50,[8]; [19],59.4 µM
same,%GI,[8]; one dose 10 µM,22.31%
same,GP (growth percent),[8]; one dose 10 µM,77.69
same,TGI,[9]; 5-dose 0.01-100 µM,13.0 µM
same,GI50,[9]; [18],3.67 µM
same,CC50,[9]; [19],45.3 µM
same,%GI,[9]; one dose 10 µM,52.45%
same,GP (growth percent),[9]; one dose 10 µM,47.55
same,TGI,[10]; 5-dose 0.01-100 µM,10.7 µM
same,GI50,[10]; [18],1.97 µM
same,CC50,[10]; [19],72 µM
same,%GI,[10]; one dose 10 µM,77.08%
same,GP (growth percent),[10]; one dose 10 µM,22.92
same,TGI,[11]; 5-dose 0.01-100 µM,9.62 µM
same,GI50,[11]; Homo sapiens,3.06 µM
same,CC50,[11]; [19],> 100 µM
same,%GI,[11]; one dose 10 µM,45.21%
same,GP (growth percent),[11]; one dose 10 µM,54.79
same,Mean % GI,[12]; 10 µM,48.83%
same,Selectivity Ratio (MID a:MID b),[12]; 5-dose assay,0.82
same,GI50,[12]; [20],3.44 µM
same,Mean % GI,[13]; 10 µM,60.81%
same,GI50,[13]; [20],2.51 µM
same,Mean % GI,[14]; 10 µM,47.62%
same,Selectivity Ratio (MID a:MID b),[14]; 5-dose assay,0.88
same,GI50,[14]; [20],3.24 µM
same,Mean % GI,[15]; 10 µM,57.21%
same,Selectivity Ratio (MID a:MID b),[15]; 5-dose assay,0.82
same,GI50,[15]; [20],3.44 µM
same,Mean % GI,[16]; 10 µM,60.04%
same,Selectivity Ratio (MID a:MID b),[16]; 5-dose assay,0.99
same,GI50,[16]; [20],2.86 µM
same,GI50,"[17]; read-out: GI50 values, range over cell lines",1.48 to 7.29 µM
same,GI50,[17]; read-out: MID a (mean GI50 of 60 NCI cancer cell lines),2.84 µM
same,Mean % GI,[17]; [21],59.26%
same,Mean GP,[17]; [21],40.74
